From ChEMBL document CHEMBL1131822, “Nonpeptidic HIV protease inhibitors: 6-alkyl-5,6-dihydropyran-2-ones possessing a novel and achiral 3-(2-t-butyl-5-methyl-4-sulfamate)phenylthio moiety” (Bioorg Med Chem Lett, 1999)

Key:
[1] = Therapeutic index was determined; conditions: read-out: Therapeutic index
[2] = target: T1, Human immunodeficiency virus type 1 protease (Human immunodeficiency virus 1, UniProt Q72874); assay: Tested in vitro for HIV protease (PR) binding affinity
[3] = In vitro Cytotoxicity against uninfected CEM (human leukemia) cells.; assay type: functional; conditions: CCRF-CEM, read-out: TC50 (the source's name)
[4] = tested on: Human immunodeficiency virus 1; assay: In vitro inhibition of HIV-1 (IIIB) cytopathic effects in CEM (human leukemia) cells.; assay type: functional, organism-based; conditions: Human immunodeficiency virus 1, CCRF-CEM
CYP3A4 [5] = target: T2, CYP3A4 (Homo sapiens, UniProt P08684); assay: Inhibition of Cytochrome P450 3A4 at 100 uM; assay type: ADME
CYP3A4 [6] = target: T2, CYP3A4; assay: Inhibition of Cytochrome P450 3A4 at 10 uM; assay type: ADME
CYP3A4 [7] = target: T2, CYP3A4; assay: Inhibition of Cytochrome P450 3A4 at 1 uM; assay type: ADME
CYP2D6 [8] = assay: Inhibition of Cytochrome P450 2D6 at 100 uM; assay type: ADME
CYP2D6 [9] = assay: Inhibition of Cytochrome P450 2D6 at 1 uM; assay type: ADME
CYP2D6 [10] = assay: Inhibition of Cytochrome P450 2D6 at 10 uM; assay type: ADME
CYP2C9 [11] = target: T3, CYP2C9 (Homo sapiens, UniProt P11712); assay: Inhibition of Cytochrome P450 2C9 at 1 uM; assay type: ADME
CYP2C9 [12] = target: T3, CYP2C9; assay: Inhibition of Cytochrome P450 2C9 at 100 uM; assay type: ADME
CYP2C9 [13] = target: T3, CYP2C9; assay: Inhibition of Cytochrome P450 2C9 at 10 uM; assay type: ADME
[14] = target: T1, Human immunodeficiency virus type 1 protease; assay: Compound was tested for binding affinity against HIV protease

T3 sequence (P11712 whole entry): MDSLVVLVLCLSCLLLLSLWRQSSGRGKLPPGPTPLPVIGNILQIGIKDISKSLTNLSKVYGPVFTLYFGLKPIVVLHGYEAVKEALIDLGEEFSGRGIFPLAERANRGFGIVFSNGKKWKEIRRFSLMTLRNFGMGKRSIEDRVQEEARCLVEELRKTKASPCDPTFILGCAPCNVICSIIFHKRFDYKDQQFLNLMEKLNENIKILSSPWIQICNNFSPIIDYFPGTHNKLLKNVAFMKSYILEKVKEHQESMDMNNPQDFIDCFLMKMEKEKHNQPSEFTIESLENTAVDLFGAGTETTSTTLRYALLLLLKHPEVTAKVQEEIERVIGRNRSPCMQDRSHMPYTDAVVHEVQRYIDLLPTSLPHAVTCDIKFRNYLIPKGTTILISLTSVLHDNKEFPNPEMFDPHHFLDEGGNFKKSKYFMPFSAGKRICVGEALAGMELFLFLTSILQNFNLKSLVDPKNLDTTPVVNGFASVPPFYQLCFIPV
T2 sequence (P08684 whole entry): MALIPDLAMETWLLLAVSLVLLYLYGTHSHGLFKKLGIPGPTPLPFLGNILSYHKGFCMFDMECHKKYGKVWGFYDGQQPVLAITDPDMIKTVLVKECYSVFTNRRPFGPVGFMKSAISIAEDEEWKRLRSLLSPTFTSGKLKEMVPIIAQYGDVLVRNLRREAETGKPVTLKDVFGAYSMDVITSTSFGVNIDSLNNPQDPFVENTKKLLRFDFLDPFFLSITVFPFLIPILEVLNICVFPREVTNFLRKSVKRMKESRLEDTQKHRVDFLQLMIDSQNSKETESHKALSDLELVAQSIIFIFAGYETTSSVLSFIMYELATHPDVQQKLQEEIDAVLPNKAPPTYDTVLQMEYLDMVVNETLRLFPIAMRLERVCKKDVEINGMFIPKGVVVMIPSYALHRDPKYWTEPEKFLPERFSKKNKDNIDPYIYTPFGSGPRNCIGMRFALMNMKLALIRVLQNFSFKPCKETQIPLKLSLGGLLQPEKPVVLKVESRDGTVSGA

SMILES	selectivity ratio [1]	IC50 [2] [nM]	CC50 [3] [µM]	EC50 [4] [nM]	inhibition at 100 µM (CYP3A4 [5]) [%]	inhibition at 10 µM (CYP3A4 [6]) [%]	inhibition at 1 µM (CYP3A4 [7]) [%]	inhibition at 100 µM (CYP2D6 [8]) [%]	inhibition at 1 µM (CYP2D6 [9]) [%]	inhibition at 10 µM (CYP2D6 [10]) [%]	inhibition at 1 µM (CYP2C9 [11]) [%]	inhibition at 100 µM (CYP2C9 [12]) [%]	inhibition at 10 µM (CYP2C9 [13]) [%]	Ki [14] [nM]
Cc1cc(SC2=C(O)OC(CCc3ccc(N)cc3)(C(C)C)CC2=O)c(C(C)(C)C)cc1OS(=O)(=O)N(C)C (configuration not stated)	86	3.9	64	740										
CCCNS(=O)(=O)Oc1cc(C(C)(C)C)c(SC2=C(O)OC(C)(CCc3ccc(O)cc3)CC2=O)cc1C (configuration not stated)	15	6.2	66	4300										
CCNS(=O)(=O)Oc1cc(C(C)(C)C)c(SC2=C(O)OC(CCc3ccc(O)cc3)(C3CCCCC3)CC2=O)cc1C (configuration not stated)	48	4.8	67	1400										
Cc1cc(SC2=C(O)OC(C)(CCc3ccc(O)cc3)CC2=O)c(C(C)(C)C)cc1OS(=O)(=O)N1CCN(C)CC1 (configuration not stated)	> 44	7.1	> 100	2300										
CCNS(=O)(=O)Oc1cc(C(C)(C)C)c(SC2=C(O)OC(CCc3ccc(O)cc3)(C(C)C)CC2=O)cc1C (configuration not stated)	> 91	4.9	> 100	1100										
Cc1cc(SC2=C(O)OC(CCc3ccc(N)cc3)(C(C)C)CC2=O)c(C(C)(C)C)cc1OS(=O)(=O)N1CCN(C)CC1 (configuration not stated)	127	1	71	560										
CNS(=O)(=O)Oc1cc(C(C)(C)C)c(SC2=C(O)OC(CCc3ccc(O)cc3)(C(C)C)CC2=O)cc1C (configuration not stated)	> 91	1.2	> 100	1100										
CCNS(=O)(=O)Oc1cc(C(C)(C)C)c(SC2=C(O)OC(CCc3ccc(O)cc3)(c3ccccc3)CC2=O)cc1C (configuration not stated)	15	26	66	4300										
Cc1cc(SC2=C(O)OC(CCc3ccc(O)cc3)(C3CCCCC3)CC2=O)c(C(C)(C)C)cc1OS(=O)(=O)N1CCN(C)CC1 (configuration not stated)	> 20	9.7	> 100	5100										
Cc1cc(SC2=C(O)OC(CCc3ccc(O)cc3)(C(C)C)CC2=O)c(C(C)(C)C)cc1OS(=O)(=O)N1CCN(C)CC1 (configuration not stated)	> 200	3.1	> 100	500	81	22	0	100	39	86				
Cc1cc(SC2=C(O)OC(C)(CCc3ccc(O)cc3)CC2=O)c(C(C)(C)C)cc1O (configuration not stated)	< 1	6.5	7	> 7000										
CCNS(=O)(=O)Oc1cc(C(C)(C)C)c(SC2=C(O)OC(CCc3ccccc3)(C(C)C)CC2=O)cc1C (configuration not stated)	87	8.9	67	770										
Cc1cc(SC2=C(O)O[C@](CCc3ccc(N)cc3)(C(C)C)CC2=O)c(C(C)(C)C)cc1CO	1050	1		200	30	16	4	33	3	16	2	59	12	0.11
Cc1cc(SC2=C(O)OC(CCc3ccc(O)cc3)(C(C)C)CC2=O)c(C(C)(C)C)cc1OS(=O)(=O)N1CCOCC1 (configuration not stated)	109	2.6	84	770										
CCNS(=O)(=O)Oc1cc(C(C)(C)C)c(SC2=C(O)OC(C)(CCc3ccc(O)cc3)CC2=O)cc1C (configuration not stated)	44	2.3	66	1500	58	10	1	100	62	89	0	46	6	
Cc1cc(SC2=C(O)OC(C)(CCc3ccc(O)cc3)CC2=O)c(C(C)(C)C)cc1OS(=O)(=O)N(C)C (configuration not stated)	> 12	1.6	> 100	8200										
Cc1cc(SC2=C(O)OC(CCc3ccc(O)cc3)(C3CCCCC3)CC2=O)c(C(C)(C)C)cc1OS(=O)(=O)N(C)C (configuration not stated)	12	20	60	5000										
CCCNS(=O)(=O)Oc1cc(C(C)(C)C)c(SC2=C(O)OC(CCc3ccc(O)cc3)(C(C)C)CC2=O)cc1C (configuration not stated)	> 83	3	> 100	1200										
Cc1cc(SC2=C(O)OC(CCc3ccccc3)(C(C)C)CC2=O)c(C(C)(C)C)cc1OS(=O)(=O)N1CCN(C)CC1 (configuration not stated)	> 61	3.9	> 100	1650										
Cc1cc(SC2=C(O)OC(CCc3ccc(O)cc3)(C(C)C)CC2=O)c(C(C)(C)C)cc1OS(=O)(=O)N(C)C (configuration not stated)	100	3.4	70	700										
Cc1cc(SC2=C(O)OC(C)(CCc3ccc(O)cc3)CC2=O)c(C(C)(C)C)cc1OS(N)(=O)=O (configuration not stated)	13	1.8	69	5200										
CCNS(=O)(=O)Oc1cc(C(C)(C)C)c(SC2=C(O)OC(CCc3ccc(N)cc3)(C(C)C)CC2=O)cc1C (configuration not stated)	117	4.3	74	630										
